The values below come from patent US8765688B2, “Anti-dandruff compositions containing peptides” (priority 2007, dated 2014).

In this series the test system is Malassezia furfur. Kind of series: Long-term stability of P18 in shampoo basic formulations (40° C.) tested on M. furfur, CFU. It is filed as cell-based. The conditions noted are these: stored at 40° C., 0; 12 and 22 days. As to the method:
Long-term stability of the peptide P18 (H-KWKLFKKIPKFLHLAKKF-NH2; carboxy-terminal end amidated) in shampoo basic formulations was tested.
The following shampoo basic formulations were prepared:
The components Texapon NSO and Tego Betain L7 were mixed and dissolved. The pH was adjusted to pH 6-7 with NaOH. In the following, 100 mM of aqueous P18 peptide solution were prepared. A corresponding volume of 100 mM P18 peptide solution was added to each formulation in order to obtain peptide P18 final concentrations as indicated in table 15.
The formulations were stored at 40° C.
After 0; 12 and 22 days, the effect of the formulations against M. furfur was analyzed.
Growth medium: M472-Pityrosporum medium according to DSMZ
The components were sterilized at 121° C., 1 bar superatmospheric pressure for 20 minutes.
2 g/L of olive oil (sterilized by filtration and, after autoclaving, added to the other components) […]
A 96-well microtiter plate was filled with in each case 100 μl of M472-Pityrosporum medium and inoculated with M. furfur suspension of the overnight culture. The M. furfur suspension was adjusted at the start of the experiment to an optical density, measured at 600 nm, of 0.1. […]
After 24 hours, the colony-forming units (CFU) were determined. For this, 1 μl and 10 μl were plated out from each of the suspensions and, after incubation for 6 days, the colonies were counted.

Ends that are not written are not given here.

For “KWKLFKKIPKFLHLAKKF-NH2 [P18, KWKLFKKIPKFLHLAKKF-NH2]”, the “long-term stability in shampoo basic formulations (in words)” value was “stable characteristics”.
